PMC9326216, “Treatment of Cardiovascular Dysfunction with PDE3-Inhibitors in Moderate and Severe Hypothermia—Effects on Cellular Elimination of Cyclic Adenosine Monophosphate and Cyclic Guanosine Monophosphate” (Frontiers in Physiology, 2022)

Assays:
erythrocytes = assay: Intracellular access of the drugs in erythrocytes (LC-MS); type: in vitro ADME, human; settings: 30 min incubation, milrinone 10 µM, amrinone 100 µM, levosimendan 1 µM
Method: Fresh (<24 h) EDTA blood from healthy donors (n = 18) was obtained and washed with Krebs-Ringer-Phosphate-Buffer containing glucose (KRPB/G, pH 7.4) and centrifuged (10 min, 1,000 g) three consecutive times. Plasma and buffy coat were removed. KRPB/G was added to the cell solution to bring it to the ratio 1:2.5. Hematocrit (Hct) was measured and adjusted with additional buffer to reach 0.44, in order to give the final Hct of 0.40 in the incubation solution. […] The reaction was stopped by placing the test tubes on ice and adding 4 ml of ice cold KRFB/G. The samples were subsequently centrifugated (5 min, 600 g), then washed with KRFB/G once more and centrifugation was repeated twice. 50 µl of the remaining red blood cell suspension was transferred to Eppendorf tubes. 50 µl 500 nM IS-Milrinone-d3 was added as an internal standard (TLC Pharmaceutical Standards Ltd.). 200 µl ZnSO4 was added to each test sample, to induce lysis of the cells, and mixed in a vortex mixer. 30 µl of the samples were used for measurement of protein concentration, the rest was mixed with 500 µl acetonitrile and centrifugated (2 min, 13400 g). Finally, 100 µl of the solution was collected for analysis using mass spectrometry (MS).
Liquid chromatography tandem mass spectrometry (LC-MS) was used to assess concentrations of the inhibitors for experiments performed to determine intracellular access of these drugs, as well as to quantify levels of cAMP/AMP and cGMP/GMP for the PDE3-and PDE5-inhibition plots. Internal standards were used, as described previously. There was a linearity from 0.2 nM to at least 2000 nM (r^2 > 0.998) for cAMP, AMP, and cGMP. For GMP, linearity was present from 2 nM to at least 2000 nM (r^2 > 0.998). Concerning PDE3-inhibitors, the linearity was found at 10 nM to at least 5,000 nM (r^2 > 0.99). Lower limit of quantification (LLOQ) was 0.2 for cAMP, cGMP, and AMP, 2 nM for GMP and 10 nM for PDE3-inhibitors (2 µl injection volume).
Intracellular concentrations of drugs were adjusted for protein concentrations in each sample. The total incubation concentrations were also adjusted for protein concentrations to evaluate the degree of access in percentage. Statistical analysis was performed using one-way ANOVA with Holm-Sidak multiple comparisons post hoc test at each temperature. ANOVA on ranks with Dunn post hoc test was used when the results were not normally distributed. The results are presented as means ± standard error of mean (SEM). p-values < 0.05 were considered significant results. Degrees of freedom (dF) is given as between group values. SigmaPlot 14.0 (Systat Software, San Jose, CA, United States) was used for all analysis, as well as creating the graphs.

PDE5 = target: T1, PDE5 (Homo sapiens, UniProt O76074); assay: Phosphodiesterase assay: inhibition of cGMP hydrolysis by recombinant PDE5; type: biochemical; settings: for IC50: 5 µM cGMP, 30 min; for Ki: Cheng-Prusoff
T1 construct: purchased Sigma-Aldrich, St. Louis, United States
Method: The study drugs were tested upon their ability to hinder cAMP and cGMP hydrolysis by inhibiting PDE3 and PDE5 respectively. Either 5 µM cAMP or cGMP (Sigma-Aldrich, St. Louis, MO, United States) were used as substrates for the enzymes. The reaction was initiated by adding PDE to the assay solution in designated Eppendorf tubes, containing fresh incubation buffer (10 mM Tris, 8.2 mM Propionic acid, 3 mM Magnesium acetate, 1.5 mM EGTA and 0.5 mg/ml BSA, 0.2 mM DTT) selected substrate (cAMP or cGMP) and inhibitor. The reaction was initiated by adding 0.016 units/µl incubate of PDE3 (Abcam, Cambridge, United Kingdom), or 0.022 units/µl incubate of PDE5 (Sigma-Aldrich, St. Louis, United States). Control samples were free of drug and were either with or without PDE. The incubation time was 30 min in the selected temperature. Reaction was stopped by adding 99.9% methanol to the solutions. Internal standards of cGMP-13C5, cAMP-13C5, AMP-13C5 (Toronto Research Chemicals Inc., Ontario, Canada) and GMP-15N5 (Sigma-Aldrich, St. Louis, MO, United States) were added to each sample, before MS analysis.
Liquid chromatography tandem mass spectrometry (LC-MS) was used to assess concentrations of the inhibitors for experiments performed to determine intracellular access of these drugs, as well as to quantify levels of cAMP/AMP and cGMP/GMP for the PDE3-and PDE5-inhibition plots. Internal standards were used, as described previously.
IC50 and Ki values were calculated for each of the drugs, both for their ability to inhibit cAMP- and cGMP- efflux, as well as PDE3 and PDE5 activity. IC50 values were derived according to [Chou (1976)], and Ki values according to [Cheng and Prusoff (1973)]. Inhibition curves were created accordingly, both with and without adjustment for normothermic control.

Row | SMILES | Intracellular access, % of drug concentration per gram protein in the incubation solution (erythrocytes; 28°C) | Intracellular access, % of drug concentration per gram protein in the incubation solution (erythrocytes; 34°C) | IC50 (PDE5; 20°C) | Ki (PDE5; 20°C) | IC50 (PDE5; 24°C) | Ki (PDE5; 24°C) | IC50 (PDE5; 28°C) | Ki (PDE5; 28°C) | IC50 (PDE5; 32°C) | Ki (PDE5; 32°C) | IC50 (PDE5; 34°C) | Ki (PDE5; 34°C) | IC50 (PDE5; 37°C) | Ki (PDE5; 37°C)
1 | Nc1cc(-c2ccncc2)c[nH]c1=O [Amrinone] | 1.66 ± 0.216% | 2.303 ± 0.284% | 105 ± 8.04 µM | 26.7 ± 2.04 µM | 99.1 ± 4.2 µM | 25.1 ± 1.07 µM | 95 ± 7.29 µM | 24.1 ± 1.85 µM | 84.5 ± 5.94 µM | 21.5 ± 1.51 µM | 91.9 ± 3.65 µM | 23.3 ± 0.93 µM | 110 ± 12.8 µM | 27.8 ± 3.25 µM
2 | C[C@@H]1CC(=O)NN=C1c1ccc(NN=C(C#N)C#N)cc1 [Levosimendan] | 18.29 ± 3.122% | 25.06 ± 5.289% | 157 ± 27.5 µM | 39.9 ± 6.97 µM | 148 ± 26.1 µM | 37.6 ± 6.63 µM | 183 ± 23 µM | 46.4 ± 5.85 µM | 162 ± 22.5 µM | 41.2 ± 5.71 µM | 150 ± 13.5 µM | 38 ± 3.41 µM | 155 ± 4.74 µM | 39.2 ± 1.2 µM
